A value given as a limit tells only on which side of the number the result lay.

One series addresses Cytochrome P450 2C9 (Homo sapiens, UniProt P11712). Kind of series: Inhibition of CYP2C9 in human liver microsomes using isoform-specific probe substrates in presence of NADPH-generating system by LC-MS analysis.
In another series the target is Cytochrome P450 2D6 (Homo sapiens, UniProt P10635). Kind of series: Inhibition of CYP2D6 in human liver microsomes using isoform-specific probe substrates in presence of NADPH-generating system by LC-MS analysis. (Liver microsomes are a subcellular fraction often used to study metabolism.)
Sequence of Cytochrome P450 2D6 (P10635 whole entry, canonical isoform): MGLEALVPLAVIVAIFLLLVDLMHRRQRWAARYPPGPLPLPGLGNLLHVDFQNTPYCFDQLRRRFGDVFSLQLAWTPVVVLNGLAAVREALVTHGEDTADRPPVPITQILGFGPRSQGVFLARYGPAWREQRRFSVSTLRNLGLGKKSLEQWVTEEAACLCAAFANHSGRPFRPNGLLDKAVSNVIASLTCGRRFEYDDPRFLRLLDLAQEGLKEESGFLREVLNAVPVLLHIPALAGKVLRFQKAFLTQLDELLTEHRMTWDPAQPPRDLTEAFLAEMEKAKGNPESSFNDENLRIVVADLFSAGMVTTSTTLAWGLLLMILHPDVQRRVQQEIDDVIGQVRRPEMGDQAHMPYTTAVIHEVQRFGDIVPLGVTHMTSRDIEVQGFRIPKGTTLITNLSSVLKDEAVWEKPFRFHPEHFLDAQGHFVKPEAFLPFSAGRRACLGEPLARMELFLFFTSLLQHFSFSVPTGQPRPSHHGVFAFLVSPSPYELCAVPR
The next series deals with T1, Cytochrome P450 2C8 (Homo sapiens, UniProt P10632).
T1 sequence (P10632 whole entry): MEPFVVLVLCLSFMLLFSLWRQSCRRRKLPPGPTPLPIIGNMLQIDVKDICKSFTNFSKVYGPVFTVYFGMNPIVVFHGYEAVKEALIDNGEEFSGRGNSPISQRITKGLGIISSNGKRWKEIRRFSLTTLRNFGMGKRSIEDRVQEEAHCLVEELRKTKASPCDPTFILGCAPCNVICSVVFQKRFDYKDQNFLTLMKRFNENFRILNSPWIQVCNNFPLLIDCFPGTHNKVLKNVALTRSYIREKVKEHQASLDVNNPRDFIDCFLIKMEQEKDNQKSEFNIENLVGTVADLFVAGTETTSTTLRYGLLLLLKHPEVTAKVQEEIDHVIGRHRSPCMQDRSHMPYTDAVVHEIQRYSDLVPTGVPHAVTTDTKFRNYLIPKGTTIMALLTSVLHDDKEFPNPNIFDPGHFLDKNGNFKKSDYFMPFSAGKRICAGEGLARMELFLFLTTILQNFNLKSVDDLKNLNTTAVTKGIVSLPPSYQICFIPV
Kind of series: Inhibition of CYP2C8 in human liver microsomes using isoform-specific probe substrates in presence of NADPH-generating system by LC-MS analysis.

Series [1] has as its target Dihydroorotate dehydrogenase (quinone), mitochondrial (Rattus norvegicus, UniProt Q63707). Kind of series: Inhibition of N-terminal His6-tagged rat DHODH expressed in Escherichia coli BL21 expressed in Escherichia coli BL21 using L-DHO as substrate and CoQ as co-substrate by DCIP dye based spectrophotometric assay.
For a further series, the target named is Cytochrome P450 3A4 (Homo sapiens, UniProt P08684). Kind of series: Inhibition of CYP3A4 in human liver microsomes using isoform-specific probe substrates in presence of NADPH-generating system by LC-MS analysis.
Sequence of Cytochrome P450 3A4 (P08684 whole entry, canonical isoform): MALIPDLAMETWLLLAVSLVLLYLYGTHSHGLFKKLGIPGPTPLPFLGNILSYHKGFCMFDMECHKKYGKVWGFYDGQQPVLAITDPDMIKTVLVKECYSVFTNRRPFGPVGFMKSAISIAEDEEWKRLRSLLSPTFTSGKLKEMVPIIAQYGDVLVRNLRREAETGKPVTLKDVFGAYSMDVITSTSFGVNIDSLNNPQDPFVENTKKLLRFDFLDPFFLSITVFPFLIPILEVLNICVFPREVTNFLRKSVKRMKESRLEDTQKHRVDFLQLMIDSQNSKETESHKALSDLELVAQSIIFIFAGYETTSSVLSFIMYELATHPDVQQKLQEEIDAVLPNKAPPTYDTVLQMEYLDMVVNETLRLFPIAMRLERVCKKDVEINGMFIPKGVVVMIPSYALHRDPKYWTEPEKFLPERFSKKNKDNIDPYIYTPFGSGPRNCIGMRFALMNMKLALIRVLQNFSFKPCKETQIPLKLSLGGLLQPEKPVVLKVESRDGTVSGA
The target of series [2] is Dihydroorotate dehydrogenase (quinone), mitochondrial (Homo sapiens, UniProt Q02127). Kind of series: Inhibition of N-terminal His6-tagged human DHODH expressed in Escherichia coli BL21 using L-DHO as substrate and CoQ as co-substrate by DCIP dye based spectrophotometric assay.
Sequence of Dihydroorotate dehydrogenase (quinone), mitochondrial (Homo sapiens, UniProt Q02127) (Q02127 whole entry): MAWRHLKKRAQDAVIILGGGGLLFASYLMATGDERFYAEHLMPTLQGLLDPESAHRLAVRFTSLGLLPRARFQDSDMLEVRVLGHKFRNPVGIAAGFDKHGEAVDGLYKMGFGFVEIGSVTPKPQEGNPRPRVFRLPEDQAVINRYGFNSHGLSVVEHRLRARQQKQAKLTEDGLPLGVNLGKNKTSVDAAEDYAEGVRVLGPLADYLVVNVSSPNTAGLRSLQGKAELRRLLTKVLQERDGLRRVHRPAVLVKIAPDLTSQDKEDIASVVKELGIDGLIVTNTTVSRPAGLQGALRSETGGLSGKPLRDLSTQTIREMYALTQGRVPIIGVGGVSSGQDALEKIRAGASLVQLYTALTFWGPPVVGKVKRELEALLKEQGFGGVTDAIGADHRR
A further series concerns the target T2, Cytochrome P450 1A2 (Homo sapiens, UniProt P05177).
T2 sequence (P05177 whole entry): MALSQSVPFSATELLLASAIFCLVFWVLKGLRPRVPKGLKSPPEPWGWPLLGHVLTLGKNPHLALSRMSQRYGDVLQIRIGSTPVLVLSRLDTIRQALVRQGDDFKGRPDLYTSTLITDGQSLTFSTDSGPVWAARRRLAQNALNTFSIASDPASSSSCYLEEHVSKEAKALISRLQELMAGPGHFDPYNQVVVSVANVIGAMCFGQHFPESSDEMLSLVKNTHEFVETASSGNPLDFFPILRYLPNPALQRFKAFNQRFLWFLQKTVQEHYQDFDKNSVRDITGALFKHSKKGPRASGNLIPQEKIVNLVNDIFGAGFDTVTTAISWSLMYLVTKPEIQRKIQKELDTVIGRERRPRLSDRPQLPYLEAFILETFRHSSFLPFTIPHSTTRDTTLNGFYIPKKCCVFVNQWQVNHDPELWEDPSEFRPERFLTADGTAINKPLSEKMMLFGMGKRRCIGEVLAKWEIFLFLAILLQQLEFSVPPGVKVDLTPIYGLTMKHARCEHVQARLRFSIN
Kind of series: Inhibition of CYP1A2 in human liver microsomes using isoform-specific probe substrate in presence of NADPH-generating system by LC-MS analysis.

In a further series the target is T3, Cytochrome P450 2B6 (Homo sapiens, UniProt P20813).
T3 sequence (P20813 whole entry): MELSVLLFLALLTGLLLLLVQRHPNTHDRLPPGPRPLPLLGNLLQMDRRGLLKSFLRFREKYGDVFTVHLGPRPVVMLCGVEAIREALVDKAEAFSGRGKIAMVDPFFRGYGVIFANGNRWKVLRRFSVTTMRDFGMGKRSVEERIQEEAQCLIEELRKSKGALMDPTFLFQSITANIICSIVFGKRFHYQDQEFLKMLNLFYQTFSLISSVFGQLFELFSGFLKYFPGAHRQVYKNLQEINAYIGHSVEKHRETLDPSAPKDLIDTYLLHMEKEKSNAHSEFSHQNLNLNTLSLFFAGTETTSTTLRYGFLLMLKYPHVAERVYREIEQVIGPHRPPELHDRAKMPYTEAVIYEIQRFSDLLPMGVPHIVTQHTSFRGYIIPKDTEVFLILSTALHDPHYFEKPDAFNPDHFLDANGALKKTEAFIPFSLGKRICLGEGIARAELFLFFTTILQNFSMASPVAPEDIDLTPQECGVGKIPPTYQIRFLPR
Kind of series: Inhibition of CYP2B6 in human liver microsomes using isoform-specific probe substrates in presence of NADPH-generating system by LC-MS analysis.

Another series concerns the target Cytochrome P450 2C19 (Homo sapiens, UniProt P33261). Kind of series: Inhibition of CYP2C19 in human liver microsomes using isoform-specific probe substrates in presence of NADPH-generating system by LC-MS analysis.

Sequence of Cytochrome P450 2C9 (P11712 whole entry, canonical isoform): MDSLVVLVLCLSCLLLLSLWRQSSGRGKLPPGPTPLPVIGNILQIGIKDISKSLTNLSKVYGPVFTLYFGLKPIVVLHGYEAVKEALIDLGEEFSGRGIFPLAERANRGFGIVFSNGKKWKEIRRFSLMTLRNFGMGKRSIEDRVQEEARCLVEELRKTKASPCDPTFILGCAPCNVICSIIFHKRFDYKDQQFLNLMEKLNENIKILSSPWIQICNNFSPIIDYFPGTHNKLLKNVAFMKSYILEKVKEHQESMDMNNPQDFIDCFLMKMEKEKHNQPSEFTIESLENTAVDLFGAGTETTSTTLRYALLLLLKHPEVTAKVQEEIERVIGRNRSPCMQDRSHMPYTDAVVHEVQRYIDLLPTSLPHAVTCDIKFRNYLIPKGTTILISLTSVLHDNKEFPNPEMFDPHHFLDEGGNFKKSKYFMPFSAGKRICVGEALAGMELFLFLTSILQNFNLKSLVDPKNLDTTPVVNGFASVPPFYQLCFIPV
Sequence of Dihydroorotate dehydrogenase (quinone), mitochondrial (Rattus norvegicus, UniProt Q63707) (Q63707 whole entry, canonical isoform): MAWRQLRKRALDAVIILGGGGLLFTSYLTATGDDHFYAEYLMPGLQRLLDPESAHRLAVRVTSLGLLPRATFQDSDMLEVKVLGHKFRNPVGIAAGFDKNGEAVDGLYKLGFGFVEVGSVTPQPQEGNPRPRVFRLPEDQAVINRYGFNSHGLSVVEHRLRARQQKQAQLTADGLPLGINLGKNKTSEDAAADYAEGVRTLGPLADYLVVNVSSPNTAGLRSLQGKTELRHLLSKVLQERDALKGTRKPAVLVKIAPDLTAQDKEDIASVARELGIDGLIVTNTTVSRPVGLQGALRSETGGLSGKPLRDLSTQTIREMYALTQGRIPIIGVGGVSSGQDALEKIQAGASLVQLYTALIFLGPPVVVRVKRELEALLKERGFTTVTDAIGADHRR
Sequence of Cytochrome P450 2C19 (P33261 whole entry, canonical isoform): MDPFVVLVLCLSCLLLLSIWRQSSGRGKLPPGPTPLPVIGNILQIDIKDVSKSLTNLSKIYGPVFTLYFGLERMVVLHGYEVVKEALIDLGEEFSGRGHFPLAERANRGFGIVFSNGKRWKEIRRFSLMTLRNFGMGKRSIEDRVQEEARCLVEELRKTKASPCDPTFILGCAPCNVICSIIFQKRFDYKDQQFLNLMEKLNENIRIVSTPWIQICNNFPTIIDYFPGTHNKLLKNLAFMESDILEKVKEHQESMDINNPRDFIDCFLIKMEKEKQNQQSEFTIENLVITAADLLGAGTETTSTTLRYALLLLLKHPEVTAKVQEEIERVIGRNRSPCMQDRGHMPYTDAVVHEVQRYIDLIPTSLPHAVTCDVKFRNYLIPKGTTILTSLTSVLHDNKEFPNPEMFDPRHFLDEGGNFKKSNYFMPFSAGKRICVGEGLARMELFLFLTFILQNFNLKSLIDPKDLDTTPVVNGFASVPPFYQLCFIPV

By IC50 is commonly meant the concentration at which inhibition is half-maximal. As for `Cc1cc(NC2CCc3cc(Cl)ccc3C2)n2nc(C(C)(F)F)nc2n1` (stereo unspecified), the IC50 at Cytochrome P450 2C9 is 10.2 µM; at Cytochrome P450 2D6, 20 µM; on Cytochrome P450 2C8 it was greater than 20 µM; in series [1] it was greater than 100 µM; at Cytochrome P450 3A4, greater than 20 µM; in series [2], greater than 100 µM. In addition, the half-inhibitory concentration (IC50) is greater than 20 µM on Cytochrome P450 1A2 and 18.4 µM at Cytochrome P450 2B6.

For the molecule `Cc1cc(NC2CCc3cc(Br)ccc3C2)n2nc(C(C)(F)F)nc2n1` (stereo unspecified), the IC50 is 8.7 µM at Cytochrome P450 2C9; greater than 20 µM on Cytochrome P450 2D6; 18.7 µM on Cytochrome P450 2C8; greater than 100 µM in [1]; greater than 20 µM at Cytochrome P450 2C19; greater than 100 µM in series [2]. For the same molecule, the values for the concentration for half-maximal inhibition (IC50) on Cytochrome P450 1A2 and on Cytochrome P450 2B6 were greater than 20 µM and 17.7 µM, respectively.

Regarding `Cc1cc(N[C@H]2CCc3ccc(Br)cc3C2)n2nc(C(C)(F)F)nc2n1`, the half-maximal inhibitory concentration (IC50) on Cytochrome P450 2C9 was 3.1 µM; at Cytochrome P450 2D6 it was 3.9 µM; on Cytochrome P450 2C8 it was 16.9 µM; in [1] it was greater than 100 µM; on Cytochrome P450 2C19 it was greater than 20 µM; at Cytochrome P450 3A4, greater than 20 µM. Further, the half-inhibitory concentration (IC50) on Cytochrome P450 1A2 and on Cytochrome P450 2B6 was greater than 20 µM each time.

`COc1ccc2c(c1)CC(Nc1cc(C)nc3nc(C(C)(F)F)nn13)CC2` (stereo unspecified): the IC50 in series [2] is greater than 100 µM.

Molecule `Cc1cc(NC2CCc3ccc(Cl)cc3C2)n2nc(C(F)(F)F)nc2n1` (stereo unspecified) returned an IC50 in series [2] greater than 50 µM.

(Values after BindingDB's records for doi:10.1021/acs.jmedchem.6b00275 (University of Washington, 2016).)
